From US7326689B2, “Pseudomycins useful against plant diseases” (Eli Lilly and Company, priority 2000, dated 2008)
Where “and” joins values, the source holds several entries; their conditions need not be identical. Equal values may be shown once.

Legend:
Test in all cases: Antifungal growth assay in potato dextrose broth, 24-well
Format in all cases: cell-based
[1] = system: Rhizoctonia solani; conditions: 2x assays
Method: (§1) Fungi to be tested were propagated on potato dextrose agar (PDA) plates at room temperature. Stock solutions of pseudomycins and depsipeptide were suspended in dimethylsulfoxide (DMSO) (Sigma) at 5 mg/ml and stored at −20C. Serial dilutions of compounds were done the day of the experiment. All serial dilutions were made in DMSO. […] These are noted in the raw data section.
(§2) Assays were performed in 24-well cell culture clusters (Costar 3524), with 990 ul potato dextrose broth (PDB, Difco) and 10 ul of the compound to be tested in each well. Initial concentrations tested were 50-1.56 ug/ml (final concentration of pseudomycin). Actual concentrations of pseudomycins tested were 50, 25, 12.5, 6.25, 3.12 and 1.56 ug/ml. Each well was inoculated with the appropriate fungus. Unless noted, the fungal inoculum consisted of an ˜4 mm^2 piece of PDA with fungal mycelium. The exceptions were as follows. Ustilago maydis: this fungus grows much like a yeast on PDA, and cells were scraped from the PDA stock plate, resuspended in PDB and 10 ul inoculum added to each well. Monilinia sp.: this fungal mycelium grows as a very loose sheet on top of PDA and would not adhere to agar blocks. Fungal mycelium was ground with a metal rod in 500 ul PDB and 10 ul inoculum was added to each well. Mycosphaeella fijiensis, Septoria passerinii, Septoria triticii: these fungi all grow very slowly and the results were difficult to score if a small piece of agar with fungal mycelium on it was used as an inoculum. For these fungi, the mycelium was ground with a metal rod in 500 ul PDB and 10 ul inoculum was added to each well.
(§3) Wells were scored for fungal growth at two days and five days. Some slow growing fungi were scored at later days for growth because assessment was not possible at two or five days. Growth was scored by comparison to a control consisting of fungus inoculated into 990 ul potato dextrose broth and 10 ul of DMSO (Dimethylsulfoxide). An additional control consisting of fungal inoculum in PDB only was performed to ensure that the DMSO was not inhibitory to fungal growth.
(§4) For assays that were repeated, new stock solutions were made from a second shipment of pseudomycins. Note that pseudomycin B′ and depsipeptide stock solutions were remade from first shipment materials because these were not included in the second shipment. […] Actual concentrations of pseudomycins tested were 2, 1, 0.5, 0.25, 0.125 and 0.0625 ug/ml. A-PO4 and A-FB=pseudomycin A phosphate salt and free base respectively.
(§5) Table 2: Two day results—concentration indicated is lowest level of compound (ug /ml) that results is no growth. NI, no inhibition; p (partial), at least 50% inhibited; -, not determined. If number of assays was greater than one, number of assays performed on the fungus is noted in parentheses. For several slow-growing fungi, days elapsed before observation (if different than two) are noted.
(§6) Table 3: Five day results—concentration indicated is lowest level of compound (ug /ml) that results in no growth. NI, no inhibition; p (partial), at least 50% inhibited; -, not performed on the fungus is noted in parentheses. For several slow-growing fungi, days elapsed before observation (if different than five) are noted.

[2] = system: Drechslera portulacae; conditions: 3x assays
Method: as §1, §2, §3, §4, §5, §6

[3] = system: Ustilago maydis; conditions: 3x assays
Method: as §1, §2, §3, §4, §5, §6

[4] = system: Mycosphaeella fijiensis (8088/88); conditions: 3x assays
Method: as §1, §2, §3, §4, §5, §6

[5] = system: Penicillium roqueforti; conditions: 3x assays
Method: as §1, §2, §3, §4, §5, §6

[6] = system: Monilinia sp.; conditions: 2x assays
Method: as §1, §2, §3, §4, §5, §6

[7] = system: Mycosphaeella fijiensis (Sigatoka); conditions: 3x assays
Method: as §1, §2, §3, §4, §5, §6

[8] = system: Septoria passerinii; conditions: 3x assays
Method: as §1, §2, §3, §4, §5, §6

[9] = system: Septoria tritici; conditions: 3x assays
Method: as §1, §2, §3, §4, §5, §6

[10] = system: Geotrichim candidum; conditions: 3x assays
Method: as §1, §2, §3, §4, §5, §6

[11] = system: Phytophthora parasitica; design: key: NI, no inhibition; p (partial), at least 50% inhibited
Method: as §1, §2, §3, §4, §5, §6

[12] = system: Diplodia natalensis; design: key: NI, no inhibition; p (partial), at least 50% inhibited
Method: as §1, §2, §3, §4, §5, §6

[13] = system: Fusarium oxysporum cubense; design: key: NI, no inhibition; p (partial), at least 50% inhibited
Method: as §1, §2, §3, §4, §5, §6

[14] = system: Sclerotinia sclerotiorum; design: key: NI, no inhibition; p (partial), at least 50% inhibited; conditions: 2x assays
Method: as §1, §2, §3, §4, §5, §6

[15] = system: Phytophthora cactorum; design: key: NI, no inhibition; p (partial), at least 50% inhibited
Method: as §1, §2, §3, §4, §5, §6

[16] = Table 3 (five day results), observed at 9 day
[17] = Table 2 (two day results), observed at 7 day
[18] = Table 3 (five day results), observed at 21 days

| Substance | lowest level of compound that results in no growth ([1]; five day results) | lowest level of compound that results in no growth ([1]; two day results) | lowest level of compound that results in no growth [2, 16] | lowest level of compound that results in no growth ([2]; two day results) | lowest level of compound that results in no growth ([3]; five day results) | lowest level of compound that results in no growth ([3]; two day results) | lowest level of compound that results in no growth [4, 17] | lowest level of compound that results in no growth ([5]; five day results) | lowest level of compound that results in no growth ([5]; two day results) | lowest level of compound that results in no growth ([6]; five day results) | lowest level of compound that results in no growth ([6]; two day results) | lowest level of compound that results in no growth [7, 17] | lowest level of compound that results in no growth [7, 18] | lowest level of compound that results in no growth ([8]; two day results) | lowest level of compound that results in no growth ([9]; two day results) | lowest level of compound that results in no growth ([10]; five day results) | lowest level of compound that results in no growth ([10]; two day results) | lowest level of compound that results in no growth ([11]; five day results) | lowest level of compound that results in no growth ([11]; two day results) | lowest level of compound that results in no growth ([12]; five day results) | further results |
| --- | --- | --- | --- | --- | --- | --- | --- | --- | --- | --- | --- | --- | --- | --- | --- | --- | --- | --- | --- | --- | --- |
| Pseudomycin B | 50 µg/mL | 6.25 µg/mL | 0.0625 µg/mL and 0.06 µg/mL | 0.06 µg/mL | 0.5 µg/mL | 0.5 µg/mL | 0.06 µg/mL | 6.25 µg/mL | 0.5 µg/mL | 6.25 µg/mL | 3.13 µg/mL | 0.5 µg/mL | 1 µg/mL | 0.06 µg/mL | 0.06 µg/mL | 3.12 µg/mL | 1.56 µg/mL | NI | NI | NI | lowest level of compound that results in no growth ([4]; Table 3 (five day results), observed at 21 days, listed as B): 0.12 µg/mL; lowest level of compound that results in no growth ([4]; Table 3 (five day results), observed at 21 days, listed as pseudomycin B): 0.125 µg/mL; lowest level of compound that results in no growth ([8]; five day results, listed as B): 0.0625 µg/mL and 0.06 µg/mL; lowest level of compound that results in no growth ([9]; five day results, listed as B): 0.06 µg/mL; lowest level of compound that results in no growth ([9]; five day results, listed as pseudomycin B): 0.0625 µg/mL; lowest level of compound that results in no growth ([12]; two day results): NI; lowest level of compound that results in no growth ([13]; five day results): NI; lowest level of compound that results in no growth ([13]; two day results): NI; lowest level of compound that results in no growth ([14]; five day results): NI; lowest level of compound that results in no growth ([14]; two day results): p at 50; lowest level of compound that results in no growth ([15]; five day results): NI; lowest level of compound that results in no growth ([15]; two day results): NI |
| Pseudomycin B′ | 6.25 µg/mL | 6.25 µg/mL | 0.25 µg/mL | 0.12 µg/mL | 3.12 µg/mL | 1.56 µg/mL | 0.5 µg/mL | 1.56 µg/mL | 1.56 µg/mL | 25 µg/mL | 25 µg/mL | 0.5 µg/mL | 1 µg/mL | 0.5 µg/mL | 0.5 µg/mL | 25 µg/mL | 25 µg/mL | NI | NI | NI | lowest level of compound that results in no growth [4, 18]: 1 µg/mL; lowest level of compound that results in no growth ([8]; five day results): 0.5 µg/mL; lowest level of compound that results in no growth ([9]; five day results): 0.5 µg/mL; lowest level of compound that results in no growth ([12]; two day results): NI; lowest level of compound that results in no growth ([13]; five day results): NI; lowest level of compound that results in no growth ([13]; two day results): NI; lowest level of compound that results in no growth ([14]; five day results): NI; lowest level of compound that results in no growth ([14]; two day results): NI; lowest level of compound that results in no growth ([15]; five day results): NI; lowest level of compound that results in no growth ([15]; two day results): NI |
| Pseudomycin C | p at 50 | 25 µg/mL | 0.0625 µg/mL and 0.06 µg/mL | 0.06 µg/mL | 0.25 µg/mL | 0.25 µg/mL | 0.125 µg/mL | 12.5 µg/mL | 1.56 µg/mL | 12.5 µg/mL | 6.25 µg/mL | 1.56 µg/mL | 1.56 µg/mL | 0.06 µg/mL | 0.125 µg/mL | 25 µg/mL | 3.12 µg/mL | NI | NI | NI | lowest level of compound that results in no growth [4, 18]: 0.25 µg/mL; lowest level of compound that results in no growth ([8]; five day results): 0.0625 µg/mL and 0.06 µg/mL; lowest level of compound that results in no growth ([9]; five day results): 0.25 µg/mL; lowest level of compound that results in no growth ([12]; two day results): NI; lowest level of compound that results in no growth ([13]; five day results): NI; lowest level of compound that results in no growth ([13]; two day results): NI; lowest level of compound that results in no growth ([14]; five day results): NI; lowest level of compound that results in no growth ([14]; two day results): NI; lowest level of compound that results in no growth ([15]; five day results): NI; lowest level of compound that results in no growth ([15]; two day results): NI |
| Pseudomycin C′ | p at 50 | p at 50 | 0.5 µg/mL | 0.05 µg/mL | 0.25 µg/mL | 0.25 µg/mL | 0.125 µg/mL | p at 50 | 1.56 µg/mL | 6.25 µg/mL | 3.12 µg/mL | 1.56 µg/mL | 1.56 µg/mL | 0.06 µg/mL | 0.125 µg/mL | 6.25 µg/mL | 1.56 µg/mL | NI | NI | NI | lowest level of compound that results in no growth [4, 18]: 0.25 µg/mL; lowest level of compound that results in no growth ([8]; five day results): 0.0625 µg/mL and 0.06 µg/mL; lowest level of compound that results in no growth ([9]; five day results): 0.25 µg/mL; lowest level of compound that results in no growth ([12]; two day results): NI; lowest level of compound that results in no growth ([13]; five day results): NI; lowest level of compound that results in no growth ([13]; two day results): NI; lowest level of compound that results in no growth ([14]; five day results): p at 50; lowest level of compound that results in no growth ([14]; two day results): 50 µg/mL; lowest level of compound that results in no growth ([15]; five day results): NI; lowest level of compound that results in no growth ([15]; two day results): NI |
